58 compounds from patent US7507727B2, “Substituted quinobenzoxazine analogs and methods of using thereof” (Cylene Pharmaceuticals, Inc., priority 2003, dated 2009) can be followed below.

One assay concerns the target c-Myc template DNA (c-myc quadruplex). Briefly: Quadruplex binding / stop assay (Taq polymerase arrest, capillary electrophoresis). As to conditions: read-out: S DATA; Table 1D, stop assay data.
Excerpt: A high throughput polymerase arrest assay has been developed. The assay comprises contacting a template nucleic acid, often DNA, with a primer, which also is often DNA; contacting the primer/template complex with a compound described herein (also referred to as a “test compound”); contacting the primer/template complex with a polymerase; and separating reaction products. The assay often includes the step of denaturing the primer/template complex mixture and then renaturing the complex, which often is carried out before a test molecule is added to the system. Multiple assays often are carried out using varying concentrations of a test compound, such that an IC50 value can be obtained, for example. The reaction products often include extended primers of different lengths.
Thus, the reaction mixture often includes at least two reaction products when a test compound interacts with a quadruplex structure in the template, one having a completely extended primer and one having an incompletely extended primer, and these two reaction products are separated. The products may be separated using any convenient separation method, such as mass spectrometry and in one embodiment, capillary electrophoresis.
In an embodiment, a primer oligonucleotide covalently linked to a fluorescent label is contacted with template DNA. The resulting complex is contacted with a test molecule and then contacted with a polymerase capable of extending the primer. The reaction products then are separated and detected by capillary electrophoresis. A longer primer sequence was used for practicing this embodiment as compared to embodiments where the primer includes no covalently-linked fluorophore or where capillary electrophoresis is not utilized for separation. Deoxynucleotides are added at any stage of the assay before the separation, often when the primer is contacted with the template DNA. The template DNA/primer complex often is denatured (e.g., by increasing the temperature of the system) and then renatured (e.g., by cooling the system) before a test compound is added).
The mixture was denatured at 95° C. for 5 minutes and, after cooling down to room temperature, was incubated at 37° C. for 15 minutes.
After cooling down to room temperature, 1 mM KCl and the test compound (various concentrations) were added and the mixture incubated for 15 minutes at room temperature. The primer extension was performed by adding 10 mM KCl and Taq DNA Polymerase (2.5 U/reaction, Promega) and incubating at 70° C. for 30 minutes. The reaction was stopped by adding 1 μl of the reaction mixture to 10 μl Hi-Di Formamide mixed and 0.25 μl LIZ120 size standard. Hi-Di Formamide and LIZ120 size standard were purchased from Applied Biosystems.
The partially extended quadruplex arrest product was between 61 or 62 bases long and the full-length extended product was 99 bases long. The products were separated and analyzed using capillary electrophoresis. Capillary electrophoresis was performed using an ABI PRISM 3100-Avant Genetic Analyzer.
Stop Assays. […] A fluorescently labeled primer DNA is then annealed to the 3′ end of the template DNA. A DNA polymerase such as Taq polymerase is then introduced to synthesize a complementary strand of DNA by extending from the fluorescently labeled primer. When the progress of the Taq polymerase is unhindered, it synthesizes a full-length copy of the template.
These products are visualized by capillary electrophoresis.
As for `CN1CCN(CCCNc2ccc3c(=O)c(C(=O)NCCCN4CCOCC4)cn4c3c2Oc2cc3ccccc3cc2-4)CC1` [compound 1554], the IC50 was determined as 1.75 µM.

For the compound `CN1CCCC1CCNC(=O)c1cn2c3c(c(NC[C@@H]4CCCO4)c(F)cc3c1=O)Oc1cc3ccccc3cc1-2` (stereo partly shown) [compound 1737], the IC50 was 4 µM.

For the compound `CC(C)N1CCN(c2c(F)cc3c(=O)c(C(=O)NCCCCN(C)C)cn4c3c2Oc2ccccc2-4)CC1` [compound 1567], the IC50 is greater than 15 µM.

On to `CCN(CC)CCCC(C)NC(=O)c1cn2c3c(c(NCCc4ccc(OC)c(OC)c4)c(F)cc3c1=O)Oc1cc3ccccc3cc1-2` (stereo not shown) [compound 1758], for which the IC50 is 9.4 µM.

Turning to `Cn1cccc1CN1CCN(c2c(F)cc3c(=O)c(C(=O)NCCN4CCCC4)cn4c3c2Oc2cc(Cl)ccc2-4)CC1` [compound 1830], the IC50 is 8.6 µM.

Regarding `CN1CCCC1CCNC(=O)c1cn2c3c(c(NCCCO)c(F)cc3c1=O)Oc1cc3ccccc3cc1-2` (stereo not shown) [compound 1678], the IC50 was 1.75 µM.

With `CN1CCCC1CCNC(=O)c1cn2c3c(c(NCCCCO)c(F)cc3c1=O)Oc1cc3ccccc3cc1-2` (stereo not shown) [compound 1661], the IC50 came to 1.75 µM.

With `CC(C)(C)OC(=O)NC1CCN(c2ccc3c(=O)c(C(=O)NCCN4CCCC4)cn4c3c2Oc2cc3ccccc3cc2-4)C1` (stereo not shown) [compound 1534], the IC50 was greater than 15 µM.

As for `CN(C)CCCCNC(=O)c1cn2c3c(c(NCCCN4CCN(C)CC4)ccc3c1=O)Oc1cc3ccccc3cc1-2` [compound 1555], the IC50 worked out at 0.75 µM.

Turning to `CN1CCN(CCCNc2c(F)cc3c(=O)c(C(=O)NCCCCNC(=N)N)cn4c3c2Oc2ccccc2-4)CC1` [compound 1631], the IC50 is greater than 15 µM.

In the case of `COc1ccc(CCNC(=O)c2cn3c4c(c(N5CCC(N)C5)c(F)cc4c2=O)Oc2cc4ccccc4cc2-3)cc1OC` (stereo not shown) [compound 1705], the IC50 was greater than 15 µM.

As to `CN(C)CCCCNC(=O)c1cn2c3c(c(N4CCC(N)C4)c(F)cc3c1=O)Oc1ccccc1-2` (stereo not shown) [compound 1624], the IC50 turned out to be 0.75 µM.

As to `CC(C)N1CCN(c2c(F)cc3c(=O)c(C(=O)N4CCN(C)CC4)cn4c3c2Oc2ccccc2-4)CC1` [compound 1570], the IC50 was greater than 15 µM.

Consider `NC1CCN(c2c(F)cc3c(=O)c(C(=O)NCCc4cccs4)cn4c3c2Oc2cc3ccccc3cc2-4)C1` (stereo not shown) [compound 1701], for which the IC50 was greater than 15 µM.

Regarding `CN1CCC[C@@H]1CCNC(=O)c1cn2c3c(c(N4CCC(c5cnccn5)C4)c(F)cc3c1=O)Oc1cc3ccccc3cc1-2` (stereo partly shown) [compound 1741], the IC50 turned out to be 0.74 µM.

On to `O=C(NCCN1CCOCC1)c1cn2c3c(c(NCCN4CCCC4)c(F)cc3c1=O)Oc1ccccc1-2` [compound 1593], for which the IC50 is greater than 15 µM.

Regarding `CN1CCCC1CCNC(=O)c1cn2c3c(c(N4C[C@@H](N)[C@H](c5ccccc5)C4)c(F)cc3c1=O)Oc1cc3ccccc3cc1-2` (stereo partly shown) [compound 1618], the IC50 is 0.75 µM.

In the case of `COc1ccccc1CCNC(=O)c1cn2c3c(c(N4CCC(N)C4)c(F)cc3c1=O)Oc1cc3ccccc3cc1-2` (stereo not shown) [compound 1711], the IC50 is greater than 15 µM.

With `CN1CCN(CCCNc2ccc3c(=O)c(C(=O)NCCN4CCCC4)cn4c3c2Oc2cc3ccccc3cc2-4)CC1` [compound 1552], the IC50 stood at 0.75 µM.

Turning to `CC1CCCC(C)N1CCCNc1c(F)cc2c(=O)c(C(=O)NCCC3CCCN3C)cn3c2c1Oc1cc2ccccc2cc1-3` (stereo not shown) [compound 1687], the IC50 was 1.75 µM.

In the case of `CC(C)(C)OC(=O)NC1CCN(c2c(F)cc3c(=O)c(C(=O)NCCCN4CCOCC4)cn4c3c2Oc2ccccc2-4)C1` (stereo not shown) [compound 1583], the IC50 was greater than 15 µM.

Consider `CN1CCN(CCCNc2c(F)cc3c(=O)c(C(=O)N4CCN(C)CC4)cn4c3c2Oc2ccccc2-4)CC1` [compound 1582], for which the IC50 is greater than 15 µM.

With `CN1CCCC1CCNC(=O)c1cn2c3c(c(NC4CC(C)(C)N(O)C(C)(C)C4)c(F)cc3c1=O)Oc1cc3ccccc3cc1-2` (stereo not shown) [compound 1484], the IC50 worked out at 1.75 µM.

On to `O=C(NCCCN1CCOCC1)c1cn2c3c(c(NCCN4CCCC4)c(F)cc3c1=O)Oc1ccccc1-2` [compound 1592], for which the IC50 is greater than 15 µM.

Consider `O=C(NCCN1CCCC1)c1cn2c3c(c(SCCc4cnccn4)c(F)cc3c1=O)Oc1cc3ccccc3cc1-2` [compound 1767], for which the IC50 came to 3.2 µM.

In the case of `COc1ccc(CCNc2c(F)cc3c(=O)c(C(=O)NCCC4CCCN4C)cn4c3c2Oc2cc3ccccc3cc2-4)cc1OC` (stereo not shown) [compound 1757], the IC50 amounted to 9.8 µM.

Consider `CN1CCN(CCCNC(=O)c2cn3c4c(c(NCCN5CCCC5)c(F)cc4c2=O)Oc2ccccc2-3)CC1` [compound 1594], for which the IC50 was greater than 15 µM.

As for `O=C(NCCCN1CCOCC1)c1cn2c3c(c(NCCCN4CCOCC4)ccc3c1=O)Oc1cc3ccccc3cc1-2` [compound 1530], the IC50 was greater than 15 µM.

Regarding `CN1CCC(N(C)c2c(F)cc3c(=O)c(C(=O)NCCC4CCCN4C)cn4c3c2Oc2cc3ccccc3cc2-4)CC1` (stereo not shown) [compound 1486], the IC50 was 1.75 µM.

The same assay, now with this note: read-out: Stop Data c-Myc μM; concentration at which 50% of the DNA was arrested (arrested:full-length 1:1).
For `CC(C)(C)OC(=O)N[C@H]1CCN(c2c(F)cc3c(=O)c(C(=O)NCCN4CCCC4)cn4c5cc6c(cc5oc2c34)c(=O)c2ccccc26)C1` [compound 202], the IC50 came out at 1.75 µM.

As for `CC(C)(C)OC(=O)NC1CCN(c2c(F)c(N)c3c(=O)c(C(=O)N4CCOCC4)cn4c3c2Oc2cc3ccccc3cc2-4)C1` (stereo not shown) [compound 230], the IC50 turned out to be 1.75 µM.

Consider `O=C(NCCCN1CCOCC1)c1cn2c3cc4oc5cc([N+](=O)[O-])ccc5[nH]c4cc3oc3c(NCCN4CCCC4)c(F)cc(c1=O)c32` [compound 552], for which the IC50 was found to be 0.375 µM.

As to `CN1CCN(CCCNC(=O)c2cn3c4cc5c(cc4oc4c(NCCC6CCCN6C)c(F)cc(c2=O)c43)c(=O)c2ccccc25)CC1` (stereo not shown) [compound 426], the IC50 came out at 0.75 µM.

In the case of `CC(C)(C)OC(=O)N[C@@H]1CCN(C(=O)c2cn3c4c(c(NCCCN5CCOCC5)c(F)cc4c2=O)Oc2cc4ccccc4cc2-3)C1` [compound 50], the IC50 was found to be 2.5 µM.

On to `CN(C)CCCCNC(=O)c1cn2c3c(c(N4CCC(NC(=O)OC(C)(C)C)C4)c(F)c(N)c3c1=O)Oc1cc3ccccc3cc1-2` (stereo not shown) [compound 228], for which the IC50 stood at 1.75 µM.

As for `CN1CCCC1CCNC(=O)c1cn2c3c(c(NC4CN5CCC4CC5)c(F)cc3c1=O)Oc1cc3ccccc3cc1-2` (stereo not shown) [compound 435], the IC50 was found to be 0.75 µM.

For the compound `CN(C)CCCCNC(=O)c1cn2c3c(c(NCCCN4CCOCC4)c(F)cc3c1=O)Oc1cc3ccccc3cc1-2` [compound 52], the IC50 worked out at 2.5 µM.

For `CN1CCN(CCCNc2ccc3c(=O)c(C(=O)NCCC4CCCN4C)cn4c3c2Oc2cc3ccccc3cc2-4)CC1` (stereo not shown) [compound 455], the IC50 is 0.75 µM.

For the compound `CN1CCCC1CCNCC(=O)N[C@@H]1CCN(c2c(F)cc3c(=O)c(C(=O)N4CCCC4)cn4c3c2Oc2cc3c(cc2-4)oc2ccccc23)C1` (stereo partly shown) [compound 412], the IC50 was 0.75 µM.

Turning to `Nc1c(F)c(N2CCC(N)C2)c2c3c1c(=O)c(C(=O)N1CCOCC1)cn3-c1cc3ccccc3cc1O2` (stereo not shown) [compound 239], the IC50 is 1.75 µM.

For the compound `NC1CCN(c2c(F)cc3c(=O)c(C(=O)NCCN4CCCCC4)cn4c3c2Oc2cc3ccccc3cc2-4)C1` (stereo not shown) [compound 195], the IC50 was 1.75 µM.

Consider `CC(C)(C)OC(=O)NC1CCN(C(=O)c2cn3c4c(c(N5CCC(NC(=O)OC(C)(C)C)C5)c(F)c(N)c4c2=O)Oc2cc4ccccc4cc2-3)C1` (stereo not shown) [compound 227], for which the IC50 turned out to be 1.75 µM.

Take `CN1CCCC1CCNCC(=O)N[C@@H]1CCN(c2c(F)cc3c(=O)c(C(=O)NCCN4CCCCC4)cn4c3c2Oc2cc3c(cc2-4)oc2ccccc23)C1` (stereo partly shown) [compound 409]: the IC50 was determined as 0.75 µM.

`CN1CCN(CCCNc2c(F)cc3c(=O)c(C(=O)NCCN4CCCC4)cn4c3c2Oc2cc3ccccc3cc2-4)CC1` [compound 395]: the IC50 amounted to 0.75 µM.

Take `NC1CCN(c2c(F)cc3c(=O)c(C(=O)NCCCn4ccnc4)cn4c3c2Oc2cc3ccccc3cc2-4)C1` (stereo not shown) [compound 200]: the IC50 is 1.75 µM.

For `CN1CCCC1CCNCC(=O)N[C@@H]1CCN(c2c(F)cc3c(=O)c(C(=O)NCCCn4ccnc4)cn4c3c2Oc2cc3c(cc2-4)oc2ccccc23)C1` (stereo partly shown) [compound 414], the IC50 is 0.75 µM.

As for `CC(C)(C)OC(=O)N[C@@H]1CCN(C(=O)c2cn3c4c(c(N5CC[C@@H](NC(=O)OC(C)(C)C)C5)c(F)cc4c2=O)Oc2cc4ccccc4cc2-3)C1` [compound 65], the IC50 was 2.5 µM.

On to `CN1CCCC1CCNC(=O)c1cn2c3c(c(N4CCC(n5c(=O)[nH]c6ccccc65)CC4)c(F)cc3c1=O)Oc1cc3ccccc3cc1-2` (stereo not shown) [compound 324], for which the IC50 turned out to be 1 µM.

On to `O=C(O)c1cn2c3c(c(NCCN4CCCC4)c(F)cc3c1=O)Oc1c-2ccc2ccccc12` [compound 3], for which the IC50 was determined as 2.5 µM.

For the compound `CC(C)(C)OC(=O)N[C@@H]1CCN(C(=O)c2cn3c4c(c(NCCN5CCCC5)c(F)cc4c2=O)Oc2cc4ccccc4cc2-3)C1` [compound 72], the IC50 was 2.5 µM.

With `CN1CCN(c2c(F)cc3c(=O)c(C(=O)N4CCC(N)C4)cn4c5cc6c(=O)c7ccccc7c(=O)c6cc5oc2c34)CC1` (stereo not shown) [compound 97], the IC50 is 2.5 µM.

Take `CN1CCCC1CCNC(=O)c1cn2c3c(c(N4CCC(C#N)(c5ccccc5)CC4)c(F)cc3c1=O)Oc1cc3ccccc3cc1-2` (stereo not shown) [compound 260]: the IC50 turned out to be 1.75 µM.

Turning to `NC1CCN(C(=O)c2cn3c4cc5c(=O)c6ccccc6c(=O)c5cc4oc4c(N5CCC(N)C5)c(F)cc(c2=O)c43)C1` (stereo not shown) [compound 499], the IC50 is 0.4 µM.

Turning to `O=C(NCCCN1CCOCC1)c1cn2c3cc4c(cc3oc3c(NCCCN5CCOCC5)c(F)cc(c1=O)c32)c(=O)c1ccccc14` [compound 203], the IC50 was 1.75 µM.

As for `NC1CCN(C(=O)c2cn3c4cc5c(=O)c6ccccc6c(=O)c5cc4oc4c(NCCCN5CCOCC5)c(F)cc(c2=O)c43)C1` (stereo not shown) [compound 94], the IC50 was 2.5 µM.

On to `O=C(O)c1cn2c3c(c(NCCN4CCCC4)c(F)cc3c1=O)Oc1cc3ccccc3cc1-2` [compound 2], for which the IC50 came to 2.5 µM.

Regarding `CN(C)CCCCNc1c(F)cc2c(=O)c(C(=O)O)cn3c4cc5oc6cc(N)ccc6[nH]c5cc4oc1c23` [compound 21], the IC50 was 0.75 µM.

Turning to `Nc1ccc2[nH]c3cc4oc5c(NCCN6CCCC6)c(F)cc6c(=O)c(C(=O)O)cn(c4cc3oc2c1)c56` [compound 9], the IC50 amounted to 1.75 µM.
